Measurements: ChEMBL document CHEMBL4002642, “Design, synthesis and evaluation of antiproliferative activity of melanoma-targeted histone deacetylase inhibitors” (Bioorg Med Chem Lett, 2017)
Active and inactive are the calls of the source. The rule behind the calls is not given here.

Assays:
[1] = molecular target: T1, Protein deacetylase HDAC6 (Mus musculus) (UniProt Q9Z2V5); assay: Inhibition of HDAC6 in mouse B16F10 cells assessed as accumulation of acetylated tubulin at 20 uM after 24 hrs by Western blot analysis; format: cell-based
T1 sequence (whole entry): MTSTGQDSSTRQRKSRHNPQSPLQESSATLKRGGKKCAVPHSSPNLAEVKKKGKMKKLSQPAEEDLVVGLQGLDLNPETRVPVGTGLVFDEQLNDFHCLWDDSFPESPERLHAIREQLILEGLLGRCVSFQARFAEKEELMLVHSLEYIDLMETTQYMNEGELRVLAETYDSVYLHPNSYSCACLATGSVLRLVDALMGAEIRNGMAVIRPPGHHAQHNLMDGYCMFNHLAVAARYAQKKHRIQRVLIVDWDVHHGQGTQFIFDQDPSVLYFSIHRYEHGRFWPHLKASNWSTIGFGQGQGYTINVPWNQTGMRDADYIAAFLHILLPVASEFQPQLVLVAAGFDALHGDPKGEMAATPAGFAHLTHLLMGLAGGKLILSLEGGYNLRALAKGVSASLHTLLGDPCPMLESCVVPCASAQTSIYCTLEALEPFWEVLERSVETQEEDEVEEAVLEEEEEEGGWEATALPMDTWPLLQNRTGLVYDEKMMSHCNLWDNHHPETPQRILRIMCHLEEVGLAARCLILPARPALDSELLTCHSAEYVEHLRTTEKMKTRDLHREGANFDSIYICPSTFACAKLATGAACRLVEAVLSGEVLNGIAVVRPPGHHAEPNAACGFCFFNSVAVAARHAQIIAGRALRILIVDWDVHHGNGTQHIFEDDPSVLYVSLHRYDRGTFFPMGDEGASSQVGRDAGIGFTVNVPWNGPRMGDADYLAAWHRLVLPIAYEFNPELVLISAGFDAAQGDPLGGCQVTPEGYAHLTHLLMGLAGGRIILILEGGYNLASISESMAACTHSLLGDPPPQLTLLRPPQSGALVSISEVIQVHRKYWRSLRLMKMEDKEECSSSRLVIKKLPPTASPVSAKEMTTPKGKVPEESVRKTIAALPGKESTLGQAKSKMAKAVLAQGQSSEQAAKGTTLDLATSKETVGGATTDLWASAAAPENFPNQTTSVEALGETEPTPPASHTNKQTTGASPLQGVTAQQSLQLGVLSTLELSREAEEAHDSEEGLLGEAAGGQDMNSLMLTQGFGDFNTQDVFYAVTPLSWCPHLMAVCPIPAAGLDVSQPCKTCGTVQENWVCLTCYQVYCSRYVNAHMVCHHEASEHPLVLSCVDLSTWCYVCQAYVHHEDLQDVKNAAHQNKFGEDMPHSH

[2] = molecular target: T2, Histone deacetylase 8 (Homo sapiens) (UniProt Q9BY41); assay: Inhibition of HDAC8 (unknown origin) at 5 uM relative to control
T2 sequence (whole entry): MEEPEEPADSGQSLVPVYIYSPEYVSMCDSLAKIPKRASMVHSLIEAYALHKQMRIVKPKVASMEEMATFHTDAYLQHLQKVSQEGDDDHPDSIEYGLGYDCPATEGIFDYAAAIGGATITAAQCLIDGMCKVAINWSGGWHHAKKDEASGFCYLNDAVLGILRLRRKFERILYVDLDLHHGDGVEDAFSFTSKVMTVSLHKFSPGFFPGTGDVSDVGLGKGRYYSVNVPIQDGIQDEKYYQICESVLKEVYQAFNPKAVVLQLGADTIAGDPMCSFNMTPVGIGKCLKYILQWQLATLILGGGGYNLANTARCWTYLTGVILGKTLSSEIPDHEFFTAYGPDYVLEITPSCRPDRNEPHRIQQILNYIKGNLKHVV

LNCaP = assay: Cytotoxicity against human LNCAP cells assessed as growth inhibition after 72 hrs by MTS assay; format: functional, cell-based
[3] = molecular target: T1, Protein deacetylase HDAC6 (Mus musculus); assay: Inhibition of HDAC6 in mouse B16F10 cells assessed as accumulation of acetylated tubulin after 24 hrs by Western blot analysis; format: cell-based
[4] = molecular target: T3, Protein deacetylase HDAC6 (Homo sapiens) (UniProt Q9UBN7); assay: Inhibition of HDAC6 (unknown origin) at 5 uM relative to control
T3 sequence (whole entry): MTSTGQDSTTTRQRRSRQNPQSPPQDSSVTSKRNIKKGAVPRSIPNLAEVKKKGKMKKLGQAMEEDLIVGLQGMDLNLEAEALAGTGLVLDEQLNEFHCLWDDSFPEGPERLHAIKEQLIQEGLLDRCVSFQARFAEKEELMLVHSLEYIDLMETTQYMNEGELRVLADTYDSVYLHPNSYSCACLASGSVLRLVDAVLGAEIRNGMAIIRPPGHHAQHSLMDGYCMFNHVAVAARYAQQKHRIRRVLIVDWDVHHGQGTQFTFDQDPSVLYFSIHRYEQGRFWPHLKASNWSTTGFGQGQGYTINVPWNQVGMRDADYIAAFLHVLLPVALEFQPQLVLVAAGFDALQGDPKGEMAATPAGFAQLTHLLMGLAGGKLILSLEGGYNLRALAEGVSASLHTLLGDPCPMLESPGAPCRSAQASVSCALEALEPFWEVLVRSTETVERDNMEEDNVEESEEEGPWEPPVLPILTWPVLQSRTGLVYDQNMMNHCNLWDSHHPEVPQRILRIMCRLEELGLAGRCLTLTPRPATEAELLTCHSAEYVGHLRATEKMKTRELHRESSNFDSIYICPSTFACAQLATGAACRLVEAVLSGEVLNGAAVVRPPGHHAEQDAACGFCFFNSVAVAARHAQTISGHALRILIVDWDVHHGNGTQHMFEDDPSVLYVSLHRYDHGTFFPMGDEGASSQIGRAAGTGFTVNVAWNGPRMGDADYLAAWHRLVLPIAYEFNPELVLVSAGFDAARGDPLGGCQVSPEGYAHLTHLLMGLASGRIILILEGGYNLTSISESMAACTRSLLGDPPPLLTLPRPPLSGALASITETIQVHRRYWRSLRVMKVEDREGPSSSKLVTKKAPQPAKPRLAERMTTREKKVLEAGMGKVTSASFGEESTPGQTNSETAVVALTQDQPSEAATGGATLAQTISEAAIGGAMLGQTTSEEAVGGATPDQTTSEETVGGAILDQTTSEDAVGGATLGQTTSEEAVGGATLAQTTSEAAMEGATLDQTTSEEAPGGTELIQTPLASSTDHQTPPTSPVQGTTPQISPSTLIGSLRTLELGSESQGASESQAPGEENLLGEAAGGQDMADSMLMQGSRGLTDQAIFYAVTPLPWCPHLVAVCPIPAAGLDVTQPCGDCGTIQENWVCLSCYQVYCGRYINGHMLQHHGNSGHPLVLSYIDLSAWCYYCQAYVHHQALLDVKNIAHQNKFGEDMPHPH

B16-F10 [5] = assay: Cytotoxicity against mouse B16F10 cells assessed as growth inhibition after 72 hrs by MTS assay; format: functional, cell-based; conditions: B16-F10, 72 h
A-375 = assay: Cytotoxicity against human A375 cells assessed as growth inhibition after 72 hrs by MTS assay; format: functional, cell-based; conditions: A-375, 72 h
B16-F10 [6] = assay: Cytotoxicity against mouse B16F10 cells assessed as growth inhibition at 25 to 50 uM after 72 hrs by MTS assay; format: functional, cell-based
Histone deacetylase 1 [7] = molecular target: T4, Histone deacetylase 1 (Homo sapiens, UniProt Q13547); assay: Inhibition of HDAC1 (unknown origin) at 5 uM relative to control
T4 sequence (Q13547 whole entry): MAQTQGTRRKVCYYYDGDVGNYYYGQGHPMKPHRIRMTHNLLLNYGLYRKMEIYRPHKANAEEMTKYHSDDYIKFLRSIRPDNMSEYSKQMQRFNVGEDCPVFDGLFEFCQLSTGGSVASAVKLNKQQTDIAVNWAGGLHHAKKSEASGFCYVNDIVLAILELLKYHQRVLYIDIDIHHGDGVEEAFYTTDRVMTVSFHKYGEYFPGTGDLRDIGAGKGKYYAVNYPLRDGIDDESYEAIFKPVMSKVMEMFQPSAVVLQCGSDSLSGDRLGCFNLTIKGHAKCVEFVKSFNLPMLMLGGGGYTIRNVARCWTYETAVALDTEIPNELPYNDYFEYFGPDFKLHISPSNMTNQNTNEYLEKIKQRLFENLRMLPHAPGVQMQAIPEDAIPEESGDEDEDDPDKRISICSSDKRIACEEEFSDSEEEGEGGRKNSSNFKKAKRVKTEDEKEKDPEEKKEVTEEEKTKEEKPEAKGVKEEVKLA

Histone deacetylase 1 [8] = molecular target: T4, Histone deacetylase 1; assay: Inhibition of HDAC1 (unknown origin)
[9] = molecular target: T5, Protein deacetylase HDAC6 (Homo sapiens, UniProt Q9UBN7); assay: Inhibition of HDAC6 (unknown origin)
T5 sequence (Q9UBN7 whole entry): T3 sequence (whole entry)

B16-F10 [10] = assay: Cytotoxicity against mouse B16F10 cells assessed as growth inhibition after 72 hrs in presence of verapamil by MTS assay; format: functional, cell-based
[11] = molecular target: T1, Protein deacetylase HDAC6 (Mus musculus); assay: Inhibition of HDAC6 in mouse B16F10 cells assessed as accumulation of acetylated tubulin at 5 to 50 uM after 24 hrs by Western blot analysis; format: cell-based

Structure (SMILES): O=C(CCCCCCC(=O)Nc1ccccc1)NO
- inhibition [1]: Active

Structure (SMILES): CCN(CC)CCNC(=O)c1ccc(C(=O)ONC(=O)CCCCCn2cc(-c3ccc4cc(OC)ccc4c3)nn2)cc1
- inhibition [2]: 52%
- IC50 (LNCaP): 6.46 µM
- inhibition [3]: Dose-dependent effect
- inhibition [4]: 99%
- IC50 (B16-F10 [5]): 27.8 µM
- IC50 (A-375): 25.9 µM
- growth inhibition (GI) (B16-F10 [6]): Active
- inhibition (Histone deacetylase 1 [7]): 100%

Structure (SMILES): CCN(CC)CCNC(=O)c1ccc(-c2cn(CCCCCC(=O)NO)nn2)cn1
- IC50 (Histone deacetylase 1 [8]): 0.1 µM
- IC50 (LNCaP): 10.5 µM
- IC50 [9]: 0.17 µM
- IC50 (B16-F10 [5]): > 100 µM
- IC50 (A-375): > 100 µM

Structure (SMILES): CCN(CC)CCNC(=O)c1ccc(-c2cn(CCCCCCC(=O)NO)nn2)cn1
- IC50 (Histone deacetylase 1 [8]): 0.017 µM
- growth inhibition (GI) (B16-F10 [10]): inactive
- IC50 (LNCaP): 1.5 µM
- IC50 [9]: 0.034 µM
- IC50 (B16-F10 [5]): 55.7 µM
- IC50 (A-375): 47.2 µM

Structure (SMILES): COc1ccc2cc(-c3cn(CCCCCC(=O)NO)nn3)ccc2c1
- IC50 (LNCaP): 5.1 µM
- inhibition [1]: Active
- IC50 (B16-F10 [5]): 10.5 µM
- IC50 (A-375): 12.6 µM

Structure (SMILES): CCN(CC)CCNC(=O)c1ccc(-c2cn(CCCCCCCC(=O)NO)nn2)cc1
- IC50 (Histone deacetylase 1 [8]): 0.012 µM
- IC50 (LNCaP): 3 µM
- IC50 [9]: 0.027 µM
- IC50 (B16-F10 [5]): 75.9 µM
- IC50 (A-375): > 100 µM

Structure (SMILES): CCN(CC)CCNC(=O)c1ccc(-c2cn(CCCCCCC(=O)NO)nn2)cc1
- IC50 (Histone deacetylase 1 [8]): 0.0038 µM
- growth inhibition (GI) (B16-F10 [10]): inactive
- IC50 (LNCaP): 1.2 µM
- IC50 [9]: 0.016 µM
- inhibition [11]: Active
- IC50 (B16-F10 [5]): 34.2 µM
- IC50 (A-375): 23.6 µM
- growth inhibition (GI) (B16-F10 [6]): Active
